Assay results as given in article PMC9227250, “Design, Synthesis and Cytotoxic Activity Evaluation of Newly Synthesized Amides-Based TMP Moiety as Potential Anticancer Agents over HepG2 Cells” (Molecules, 2022).

What was measured:
HepG2 cells [1] = assay: MTT cytotoxicity assay against HepG2 cell line; format: cell-based; conditions: Homo sapiens, mean of three independent replicates ± SE
Method: (§1) Cytotoxic activity was carried out using MTT colorimetric antiproliferative assay to investigate the effect of the prepared molecules on HepG2 as well as HL-7702 cell lines. See Section 4.3.1 in Supplementary Data.
(§2) 4.3.1. Cytotoxic activity evaluation
(§3) To measure the cytotoxic actvity of the amide derivatives 2-6e in hepatocellular carcinoma (HepG2) cell line (ATCC Cat No. HB-8065) as well as normal human liver cell line HL-7702 (ATCC Cat. No. 77402), cell viability assay was assessed using MTT assay method. Cells at density of 1 x 104 were seeded in a 96-well plate at 37 °C for 24 h under 5% CO2. After incubation, the cells were treated with different concentrations of the test schiff bases 2-6e and incubated for 24 h, then 20 µl of MTT solution at 5 mg/mL was applied and incubated for 4 h at 37 °C . Dimethyl sulphoxide (DMSO) in volume of 100 µl was added to each well to dissolve the purple formazan that had formed. The color intensity of the formazan product, which represents the growth condition of the cells, is quantified by using an ELISA plate reader (EXL 800, USA) at 450 nm absorbance. The experimental conditions were carried out with at least three replicates, and the experiments were repeated at least three times. […]

HepG2 cells [2] = assay: Cell cycle analysis by flow cytometry (PI); format: cell-based, human; conditions: HepG2, IC50 dose, 48 h; untreated control 7.28%
Text: Inhibition of tubulin assembly into microtubule and the antiproliferative effects are characterized by cell cycle arrest in the G2/M phase. […] The results in this study indicate that the newly prepared tetraamide derivative 6a cause cell cycle perturbation in the G2/M phase which is the main gauge of HDAC and tubulin inhibitors confirming the mode of action under study.
Cell cycle analysis in HepG2 cells was investigated using fluorescent Annexin V-FITC/ PI detection kit (BioVision EZCell^TM Cell Cycle Analysis Kit Catalog #K920) by flow cytometry assay. See Section 4.3.4 in Supplementary Data. […]
(§4) concentration that induces 50% of maximum inhibition of HDAC isoforms (IC50) […]
(§5) 4.3.3. Tubulin inhibitions Assay
(§6) Compound 6a was evaluated for its tubulin inhibitory activity according to manufacturer’s instructions using # abcam Human Beta-tubulin simplestep ELISA Kit […]
(§7) 4.3.4. Cell cycle analysis of compound 6a
Cell cycle analysis in HepG2 cells was investigated using fluorescent Annexin V - FITC/ PI detection kit (BioVision EZCellTM Cell Cycle Analysis Kit Catalog #K920) by flow cytometry assay. HepG2 cells at a density of 2 × 10^5 per well were treated with compound 6a at its IC50 concentration for 48 h. […] The samples were immediately analyzed using Facs Calibur flow cytometer (Becton and Dickinson, Heidelberg, Germany). […]

HL-7702 cells = assay: MTT cytotoxicity assay against normal liver cell line HL-7702; format: cell-based, human
Method: as §1, §2, §3

HepG2 cells [3] = assay: Annexin V-FITC/PI apoptosis assay; format: cell-based, human; conditions: HepG2, IC50 concentration, 48 h
Method: G2/M blockade is often followed by cellular apoptosis. To quantify the percentage of cellular apoptosis induced by compound 6a in HepG2 cells, Annexin V fluorescein isothiocyanate versus propidium iodide (PI) dual staining analysis was performed after treatment with compound 6a at its IC50 concentration for 48 h. The results were presented graphically in Figure 5. […] Therefore, it can be concluded that compound 6a can be considered as apoptotic inducer.
Apoptosis in HepG2 cells was investigated using fluorescent Annexin V-FITC/ PI detection kit (BioVision Annexin V-FITC Apoptosis Detection Kit, Catalog #: K101) by flow cytometry assay. See Section 4.3.5 in Supplementary Data. […]
as §4, §5, §6, §7
Cell cycle analysis in HepG2 cells was investigated using fluorescent Annexin V - FITC/ PI detection kit (BioVision EZCellTM Cell Cycle Analysis Kit Catalog #K920) by flow cytometry assay. HepG2 cells at a density of 2 × 10^5 per well were treated with compound 6a at its IC50 concentration for 48 h. After treatment, cells were washed twice in PBS, fixed in 70% ethanol, rinsed again with PBS. Cells were collected by centrifugation at 2000 rpm for 5 min and stained with DNA fluorochrome PI for 15 min at 37 °C in dark. The samples were immediately analyzed using Facs Calibur flow cytometer (Becton and Dickinson, Heidelberg, Germany).
4.3.5. Apoptosis assay for compound 6a […]
Caspase 3/7 in HepG2 cells was investigated using CellEvent® Caspase 3/7 Green Detection Flow Cytometry Assay Kit. Caspase 3/7 activity in HepG2 cell line was detected in the presence of compounds 6a at its IC50 concentration (µM) using CellEvent® caspase 3/7 green detection flow cytometry assay kit according to manufacturer’s directions. […]

HDAC1 = biological target: T1, HDAC1 (Homo sapiens, UniProt Q13547); assay: In vitro HDAC1 inhibition assay (ELISA kit); format: biochemical; conditions: HepG2 cells exposed 72 h
T1 construct: Briefly, HepG2 cells were trypsinized, counted and seeded; host or cells: HepG2
Method: (§8) See Section 4.3.2 in Supplementary Data.
(§9) 4.3.1. Cytotoxic activity evaluation […]
(§10) for 24 h under 5% CO2. After incubation, the cells were treated with different concentrations of the test schiff bases 2-6e and incubated for 24 h, then 20 µl of MTT […]
(§11) (DMSO) in volume of 100 µl was added to each well to dissolve the purple formazan that had formed. The color intensity of the formazan product, which represents the […]
(§12) USA) at 450 nm absorbance. The experimental conditions were carried out with at least three replicates, and the experiments were repeated at least three times.
(§13) 4.3.2. In vitro HDAC inhibition assay
(§14) HDAC isoforms (HDAC1, 2) were measured using ELISA assay kits {Mybiosource, Inc. [#MBS2020012 and #MBS2510971]} according to manufacturer's directions.
(§15) 96-well micro titer plates. Cells then were incubated in a humidified atmosphere at 37 °C for 24 h. The standards, the tested compounds, and the positive reference SAHA were diluted to designated concentrations. On the 96-well micro titer plates standard or sample was added to each well in 100 µL, and incubated at 37 °C for 2 h. The solution was aspirated and 100 µL of prepared. Detection Reagent A was added to […]
4.3.3. […]
(§16) The samples were immediately analyzed using Facs Calibur flow cytometer (Becton and Dickinson, Heidelberg, Germany). […]
(§17) immediately analyzed using FACS Calibur flow cytometer (Becton and Dickinson, […]

HDAC2 = biological target: T2, HDAC2 (Homo sapiens, UniProt Q92769); assay: In vitro HDAC2 inhibition assay (ELISA kit); format: biochemical; conditions: HepG2 cells exposed 72 h
T2 construct: Briefly, HepG2 cells were trypsinized, counted and seeded; host or cells: HepG2
Method: as §8, §9, §10, §11, §12, §13, §14, §15
4.3.3. […]
as §16, §17

β-tubulin = biological target: T3, β-tubulin (Homo sapiens, UniProt P07437+P68363); assay: Tubulin polymerization inhibition assay (Human Beta-tubulin ELISA kit); format: biochemical
T3 construct: […]
Method: See Section 4.3.3 in Supplementary Data.
4.3.3. Tubulin inhibitions Assay […]
manufacturer’s instructions using # abcam Human Beta-tubulin simplestep ELISA Kit […]
Cell cycle analysis in HepG2 cells was investigated using fluorescent Annexin V - FITC/ PI detection kit (BioVision EZCellTM Cell Cycle Analysis Kit Catalog #K920) […]
After treatment, cells were washed twice in PBS, fixed in 70% ethanol, rinsed again with PBS. Cells were collected by centrifugation at 2000 rpm for 5 min and stained with DNA […]
The samples were immediately analyzed using Facs Calibur flow cytometer (Becton and Dickinson, Heidelberg, Germany).
Apoptosis in HepG2 cells was investigated using fluorescent Annexin V-FITC/ PI detection kit (BioVision Annexin V-FITC Apoptosis Detection Kit, Catalog #: K101) […]
as §17
Caspase 3/7 in HepG2 cells was investigated using CellEvent® Caspase 3/7 Green Detection Flow Cytometry Assay Kit. Caspase 3/7 activity in HepG2 cell line was […]
CellEvent® caspase 3/7 green detection flow cytometry assay kit according to manufacturer’s directions. […]
harvested and washed with ice cold PBS, and cell lysates were prepared and […]

T3 sequence (P07437 whole entry): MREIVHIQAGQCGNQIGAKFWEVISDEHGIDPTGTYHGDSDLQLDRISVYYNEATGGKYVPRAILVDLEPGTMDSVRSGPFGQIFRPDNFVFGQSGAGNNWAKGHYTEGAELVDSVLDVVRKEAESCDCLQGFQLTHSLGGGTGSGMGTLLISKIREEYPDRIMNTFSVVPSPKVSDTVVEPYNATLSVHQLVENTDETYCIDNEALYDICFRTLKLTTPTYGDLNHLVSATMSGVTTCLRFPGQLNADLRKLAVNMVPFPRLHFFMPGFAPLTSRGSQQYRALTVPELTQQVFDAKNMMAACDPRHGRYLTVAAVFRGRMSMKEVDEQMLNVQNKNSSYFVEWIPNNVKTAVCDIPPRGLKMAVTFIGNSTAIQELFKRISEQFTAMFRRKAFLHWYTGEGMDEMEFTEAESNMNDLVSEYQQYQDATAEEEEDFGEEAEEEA
T3 sequence (P68363 whole entry): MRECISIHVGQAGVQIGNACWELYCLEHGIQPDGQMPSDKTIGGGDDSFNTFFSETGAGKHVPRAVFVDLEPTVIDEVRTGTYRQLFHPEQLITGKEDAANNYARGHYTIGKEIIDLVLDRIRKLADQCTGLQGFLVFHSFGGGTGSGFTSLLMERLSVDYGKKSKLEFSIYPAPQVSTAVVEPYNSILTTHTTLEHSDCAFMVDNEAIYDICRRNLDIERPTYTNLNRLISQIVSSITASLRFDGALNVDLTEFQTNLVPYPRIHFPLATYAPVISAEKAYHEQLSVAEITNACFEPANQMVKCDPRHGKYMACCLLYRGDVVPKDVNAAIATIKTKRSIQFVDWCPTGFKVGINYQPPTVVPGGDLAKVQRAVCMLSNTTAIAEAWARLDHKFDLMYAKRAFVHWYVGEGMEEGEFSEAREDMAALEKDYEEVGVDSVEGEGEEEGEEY
T2 sequence (Q92769 whole entry): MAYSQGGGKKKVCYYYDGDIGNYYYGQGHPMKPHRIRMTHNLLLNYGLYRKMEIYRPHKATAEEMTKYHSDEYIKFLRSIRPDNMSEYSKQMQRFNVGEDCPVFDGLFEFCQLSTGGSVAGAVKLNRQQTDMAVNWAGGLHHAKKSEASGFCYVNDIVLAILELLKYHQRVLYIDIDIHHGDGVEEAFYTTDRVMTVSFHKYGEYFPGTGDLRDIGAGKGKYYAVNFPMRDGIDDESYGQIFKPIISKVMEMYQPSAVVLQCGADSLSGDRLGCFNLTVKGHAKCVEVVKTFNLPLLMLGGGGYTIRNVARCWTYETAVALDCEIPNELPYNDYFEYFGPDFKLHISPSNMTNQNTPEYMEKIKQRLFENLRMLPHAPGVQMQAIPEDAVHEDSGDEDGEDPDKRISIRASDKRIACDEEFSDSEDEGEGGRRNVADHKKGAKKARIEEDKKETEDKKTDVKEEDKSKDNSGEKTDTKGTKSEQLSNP
T1 sequence (Q13547 whole entry): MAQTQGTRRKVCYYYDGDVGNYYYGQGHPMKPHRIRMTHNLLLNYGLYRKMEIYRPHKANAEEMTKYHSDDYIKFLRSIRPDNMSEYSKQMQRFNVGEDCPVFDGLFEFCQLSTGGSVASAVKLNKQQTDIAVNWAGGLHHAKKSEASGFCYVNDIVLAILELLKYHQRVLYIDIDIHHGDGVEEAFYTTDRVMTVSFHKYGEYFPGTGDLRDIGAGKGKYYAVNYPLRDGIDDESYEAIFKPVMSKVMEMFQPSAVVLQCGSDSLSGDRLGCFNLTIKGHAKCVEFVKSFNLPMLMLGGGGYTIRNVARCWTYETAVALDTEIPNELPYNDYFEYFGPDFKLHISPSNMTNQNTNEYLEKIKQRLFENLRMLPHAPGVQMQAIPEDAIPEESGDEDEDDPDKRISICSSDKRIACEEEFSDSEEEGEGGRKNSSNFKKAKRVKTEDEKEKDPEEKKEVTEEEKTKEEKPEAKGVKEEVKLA

With `COc1cc(C(=O)NC(=Cc2ccc(Cl)cc2)C(=O)NNC(=O)/C(=C/c2ccco2)NC(=O)c2cc(OC)c(OC)c(OC)c2)cc(OC)c1OC` [Compound 6a, N-((1Z)-3-(2-(3-(4-chlorophenyl)-2-(3,4,5-trimethoxybenzamido)acryloyl)hydrazinyl)-1-(furan-2-yl)-3-oxoprop-1-en-2-yl)-3,4,5-trimethoxybenzamide] the IC50 (HepG2 cells [1]) was 650 ± 30 nM, the “cells in G2/M phase” value (HepG2 cells [2]) was 39.09% and the “selectivity ratio toward normal liver cell line” value (HL-7702 cells; HL-7702 (printed HL-7022) versus HepG2) was 14.8. For the same compound, the IC50 (HL-7702 cells; Homo sapiens, L02, MTT assay, normal liver cell line HL-7702, mean of three independent replicates ± SE) was 9620 ± 230 nM, the “late apoptotic cell percentage” value (HepG2 cells [3]; untreated control 0.13%) was 12.08% and the “early apoptotic cell percentage” value (HepG2 cells [3]; untreated control 0.52%) was 23.41%. The total apoptosis percentage (HepG2 cells [3]; untreated control 1.59%) was 37.51%, the melting point was 209 to 211 °C and the IC50 (HDAC1) was 47 nM. The IC50 (HDAC2) was 86 nM, the “tubulin polymerization percentage inhibition” value (β-tubulin; ELISA for β-tubulin, compared with untreated control cells) was 66.39% and the IC50 (β-tubulin; β-tubulin ELISA) was 270 nM.
